The values below are quoted from earlier work in PMC4627231, “Targeting the sugar metabolism of tumors with a first-in-class 6-phosphofructo-2-kinase (PFKFB4) inhibitor” (Oncotarget, 2015).

For this data set, the system named is breast cancer patients. Details: method as in PMID 25524798. The following applies: cited from earlier work.

Turning to `CC(=O)c1c(C)c2cnc(Nc3ccc(N4CCNCC4)cn3)nc2n(C2CCCC2)c1=O` [palbociclib], the progression-free survival entry was “double” and the toxicity result was “without causing excessive toxicity”.
